Data set [1] is described as follows: clinical. To be noted: in vivo.
For data set [2] the following is noted: human, in vivo.
Data set [3] concerns AZT/3TC-resistant HIV-1 recombinant viruses. Description: microbe, parasite or virus in culture. To be noted: Human immunodeficiency virus 1, read-out: Average IC90 for AZT/3TC-R virus. The class given is cell-based. The procedure:
A panel of 22 viruses was constructed in the HXB2 background using the Protease and RT sequences from clinical isolates to determine Virco Profiling against recombinant clinical isolates (see FIGS. 7a and 7b). Viruses contained 2 to 17 mutations in RT frequently associated with nucleoside resistance, including: M184V, M41L, D67N, T215Y. IC50 values were determined using a high through-put reporter virus assay.

In another data set the test system is HepG2 cells. As to the kind of experiment: Mitochondrial toxicity testing (mitDNA, rRNA, lactic acid). The class given is cell-based. To be noted: 14 days; for % Change in Lactic Acid: normalized for cytotoxicity. The procedure: HepG2 cells were incubated for 14 days with the active agent. and mitDNA and rRNA levels were determined by quantitative real-time PCR. The results are tabulated in […]

Data set [4] is described as follows: clinical. To be noted: male, human, in vivo. On the procedure:
Total of 18 HIV-1 infected males, aged 18-55 years, enrolled, 6 per treatment cohort.
In Cohort 3, subjects received either 100 mg, or 200 mg, or placebo.
The data was analyzed using non-compartmental and two-compartmental models.
HIV RNA levels were also determined using quantitative real-time RT-PCR.
Plasma HIV-1 RNA levels were measured by quantitative reverse transcriptase-polymerase chain reaction (Q-RT-PCR) essentially as described by Stuyver, L. J. et al., “Antiviral activity and cellular toxicity of modified 2′,3′-dideoxy-2′,3′-didehydrocytidine analogues” Antimicrob Agents Chemother.

Another data set deals with HIV viral load. To be noted: cited from earlier work.
Another data set deals with T1, wild type HIV-RT (Human immunodeficiency virus type 1 group M subtype B, UniProt P04585).
T1 construct: The Ki value for β-D-D4FC-TP for wild type HIV-RT
As to the kind of experiment: Ki / Km for wild type HIV-RT. The data set is classed as biochemical, HIV-1.

The conditions of data set [5]: pbmc.
Data set [6] deals with acutely HIV-1 infected human PBM cells. Description: Median effect / combination index study with Racivir. To be noted: Human immunodeficiency virus 1, PBMC, 120 h. The class given is cell-based.
The target in another data set is M184V mutant RT (Human immunodeficiency virus type 1 group M subtype B, UniProt P04585, M771V). Description: biochemical. The class given is biochemical, HIV-1.
The next data set has as its target T2, DNA Pol γ (Homo sapiens, UniProt P54098).
T2 sequence (P54098 1-1239): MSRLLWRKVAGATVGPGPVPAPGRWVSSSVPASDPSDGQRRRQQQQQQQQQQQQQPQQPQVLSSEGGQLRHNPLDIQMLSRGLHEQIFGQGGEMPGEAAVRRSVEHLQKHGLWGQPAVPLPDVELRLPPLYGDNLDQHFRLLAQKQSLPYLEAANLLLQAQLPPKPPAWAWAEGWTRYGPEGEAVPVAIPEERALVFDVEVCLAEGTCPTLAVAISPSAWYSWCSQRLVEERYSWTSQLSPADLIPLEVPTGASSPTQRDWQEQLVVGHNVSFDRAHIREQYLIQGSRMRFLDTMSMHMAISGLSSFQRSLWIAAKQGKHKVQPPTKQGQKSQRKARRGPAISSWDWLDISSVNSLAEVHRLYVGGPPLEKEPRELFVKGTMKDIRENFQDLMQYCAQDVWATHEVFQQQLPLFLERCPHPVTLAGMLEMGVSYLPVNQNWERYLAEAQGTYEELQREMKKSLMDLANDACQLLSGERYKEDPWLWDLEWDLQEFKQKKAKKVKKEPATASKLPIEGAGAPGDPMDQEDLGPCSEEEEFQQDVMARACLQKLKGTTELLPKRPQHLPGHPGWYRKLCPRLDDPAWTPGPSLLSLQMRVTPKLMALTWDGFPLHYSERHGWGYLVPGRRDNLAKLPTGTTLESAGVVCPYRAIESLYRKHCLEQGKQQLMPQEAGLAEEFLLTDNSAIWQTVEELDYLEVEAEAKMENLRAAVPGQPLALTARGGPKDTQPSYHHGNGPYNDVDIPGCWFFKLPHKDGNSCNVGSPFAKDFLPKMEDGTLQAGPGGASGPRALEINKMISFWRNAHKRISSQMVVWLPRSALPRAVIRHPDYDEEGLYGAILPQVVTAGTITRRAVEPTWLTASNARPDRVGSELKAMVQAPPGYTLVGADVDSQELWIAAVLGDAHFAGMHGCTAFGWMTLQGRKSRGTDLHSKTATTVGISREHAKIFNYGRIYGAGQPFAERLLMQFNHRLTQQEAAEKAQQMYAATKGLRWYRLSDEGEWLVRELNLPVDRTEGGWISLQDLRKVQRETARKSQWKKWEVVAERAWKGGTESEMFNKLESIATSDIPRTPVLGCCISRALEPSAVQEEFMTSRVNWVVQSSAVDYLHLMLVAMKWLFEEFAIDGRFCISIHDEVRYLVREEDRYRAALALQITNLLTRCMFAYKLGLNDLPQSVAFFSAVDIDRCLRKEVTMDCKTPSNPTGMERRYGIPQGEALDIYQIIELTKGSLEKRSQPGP
As to the kind of experiment: Inhibition of pure DNA polymerase γ by nucleoside triphosphates. The data set is classed as biochemical. To be noted: tritiated dCTP incorporation. On the procedure:
(§1) Triphosphates of nucleosides were tested against pure polymerases using tritiated dCTP incorporation.

A further data set addresses DNA Pol β (Homo sapiens, UniProt P06746). As to the kind of experiment: Inhibition of pure DNA polymerase β by nucleoside triphosphates. The data set is classed as biochemical. To be noted: tritiated dCTP incorporation. On the procedure:
as §1

Read-outs that look alike come from different tables or passages of the source.

In general, Cmax refers to the highest concentration seen after dosing. In “clinical [1]”, `Nc1ccn([C@@H]2CS[C@H](CO)O2)c(=O)n1` [3TC, β-L-2′,3′-dideoxy-3′-thiacytidine] yielded a Cmax of 6.6 µM. For the same compound, in data set [2], the “Intracellular [Nuc-PPP] in patients” value is 6 to 10 µM. Besides, in [3], the IC90 was over 93000 nM. Besides, in the data set with HepG2 cells (1 μM), the “% Change in mitDNA” value came out at 0%, the “% Change in rRNA” value is listed as −0.3% and the “% Change in Lactic Acid” value is “+23%”. Also, in the data set with HepG2 cells (10 μM), the “% Change in mitDNA” value is listed as −9%, the “% Change in rRNA” value is listed as −0% and the “% Change in Lactic Acid” value was “+5%”.

Broadly, the AUC is the area under the concentration-time curve, a measure of exposure. Higher therefore signals high exposure. For orientation: Tmax means the time at which the peak concentration occurs. As for `Nc1nc(=O)[nH]cc1F` [5FC, 5-fluorocytosine], in the data set “clinical [4]” (10 mg), the AUC was 0.39 ± 0.26 µM·h, the “AUC(0-τ)” value came to 136 ± 14 ng·h/mL, the “AUC(0-∞)” value stood at 149 ng·h/mL and the CLr came to 1.39 L/h. Further, in “clinical [4]” (10 mg), the CLtot/F is 67 957 mL/h, the “T ½” value is recorded as 6.4 ± 4.2 h, the Tmax is recorded as 1.0 ± 0.3 h and the “t1/2 λz” value worked out at 2.41 h. The compound further yielded a tmax in “clinical [4]” (10 mg) of 1.08 h. Further, in the data set “clinical [4]” (25 mg), the AUC stood at 1.52 ± 0.87 µM·h, the “AUC(0-τ)” value was determined as 234 ng·h/mL, the “AUC(0-∞)” value stood at 250 ng·h/mL and the CLr came out at 1.27 L/h. Moreover, in “clinical [4]” (25 mg), the CLtot/F was 115 262 mL/h, the “T ½” value turned out to be 9.5 ± 5.2 h, the Tmax turned out to be 1.8 ± 0.9 h and the “t1/2 λz” value was 4.60 h. The compound also yielded a tmax in the data set “clinical [4]” (25 mg) of 1.33 h. Also, in “clinical [4]” (100 mg), the AUC was 1.93 ± 0.68 µM·h, the “AUC(0-τ)” value stood at 309 ng·h/mL, the “AUC(0-∞)” value was 340 ng·h/mL and the CLr was determined as 10.26 L/h. Further, in the data set “clinical [4]” (100 mg), the CLtot/F was 307 932 mL/h, the “T ½” value worked out at 18.6 ± 10.1 h, the Tmax is listed as 3.7 ± 0.8 h and the “t1/2 λz” value is listed as 8.50 h. The same compound came in with a tmax in “clinical [4]” (100 mg) of 3.67 h. In the data set “clinical [4]” (200 mg), the AUC was found to be 14.43 ± 13.12 µM·h, the “AUC(0-τ)” value is reported as 1,665 ng · h/mL, the “AUC(0-∞)” value is 1,887 ng · h/mL and the CLr was found to be 4.60 L/h. In “clinical [4]” (200 mg), the CLtot/F is listed as 169 692 mL/h, the “T ½” value was found to be 11.2 ± 7.1 h, the Tmax was determined as 3.3 ± 3.2 h and the “t1/2 λz” value turned out to be 10.48 h. In the data set “clinical [4]” (200 mg), this compound yielded a tmax of 3.33 h.

For `Nc1nc(NC2CC2)c2ncn([C@H]3C=C[C@@H](CO)C3)c2n1` [ABC, (1S,4R)-4-[2-amino-6-cyclopropyl-amino)-9H-purin-9-yl]-2-cyclopentene-1-methanol succinate], the “Viral Load Decline (log)” value with HIV viral load (600 mg BD, duration of dosing 7) is −1.00 log.

Consider `Cc1cn([C@H]2C[C@H](N=[N+]=[N-])[C@@H](CO)O2)c(=O)[nH]c1=O` [AZT, 3′-deoxy-3′-azido-thymidine], for which, in the data set on HIV viral load (300 mg BD, duration of dosing 14), the “Viral Load Decline (log)” value is recorded as −0.6 log.

A word on the half-life: it is the time in which the quantity being followed falls by half. A lower half-life goes with rapid decline. The Ki is the equilibrium dissociation constant of an inhibitor or competing ligand from its target. As a reminder, the EC50 is the concentration at which the effect is half-maximal. As a reminder, the EC90 is the concentration needed for an effect of 90%. In “clinical [1]”, `Cc1cn([C@H]2C=C[C@@H](CO)O2)c(=O)[nH]c1=O` [D4T, 2′,3′-didehydro-2′,3′-dideoxythymidine] had a Cmax of 2.7 µM and a half-life of 1.7 h. In data set [2], the “Intracellular [Nuc-PPP] in patients” value turned out to be 0.05 µM. Further, the inhibition constant (Ki) at wild type HIV-RT is 50 to 300 nM. Also, in data set [3], the IC90 turned out to be 6800 nM. This compound also showed an Intracellular half life in data set [5] of 3.5 h. Besides, in [6], the EC50 was 50 nM and the EC90 was 350 nM. Moreover, the Ki on M184V mutant RT came out at 3000 nM.

As for `Nc1nc(N)c2ncn([C@H]3CO[C@@H](CO)O3)c2n1` [DAPD, β-D-dioxolanyl-2,6-diaminopurine], the “Viral Load Decline (log)” value in the data set on HIV viral load (300 mg BD, duration of dosing 14, add-on study in experienced patients) is −1.5 log.

For `Cc1cn([C@H]2C[C@H](F)[C@@H](CO)O2)c(=O)[nH]c1=O` [FLT], the “Viral Load Decline (log)” value in the data set on HIV viral load (7.5 mg QD, duration of dosing 28, add-on study in experienced patients) is listed as −1.88 log.

Consider `Nc1nc(=O)n([C@@H]2CS[C@H](CO)O2)cc1F` [FTC, β-L-2′,3′-dideoxy-3′-thia-5-fluorocytidine], for which the “Viral Load Decline (log)” value with HIV viral load (200 mg QD, duration of dosing 12) is on record as −1.7 log.

For the compound `Nc1nc(=O)n([C@H]2C=C[C@@H](CO)O2)cc1F` [L-D4FC], the “Viral Load Decline (log)” value in the data set on HIV viral load (50 mg QD, duration of dosing 21, add-on study in experienced patients, mean of 7 of 18 patients) is given as −1.69 log. Moreover, in the data set on HepG2 cells (1 μM), the “% Change in mitDNA” value is on record as −15%, the “% Change in rRNA” value is listed as 0% and the “% Change in Lactic Acid” value was “+25%”. Further, in the data set on HepG2 cells (10 μM), the “% Change in mitDNA” value is reported as −74.2%, the “% Change in rRNA” value is given as −75.5% and the “% Change in Lactic Acid” value was “+147%”.

Regarding `Nc1ccn([C@H]2CO[C@@H](CO)S2)c(=O)n1` [SPD 754], in the data set with HIV viral load (1200 mg QD, duration of dosing 10), the “Viral Load Decline (log)” value is listed as −1.62 log.

Turning to `C[C@H](Cn1cnc2c(N)ncnc21)OCP(=O)(O)O` [TFV], the “Viral Load Decline (log)” value in the data set with HIV viral load (300 mg QD, duration of dosing 28) was −1.57 log.

As a reminder, the Km is the concentration of substrate that gives half-maximal velocity. With `Nc1ccn([C@H]2C[C@H](O)[C@@H](COP(=O)(O)OP(=O)(O)OP(=O)(O)O)O2)c(=O)n1` [dC-TP], the Michaelis constant (Km) was 7 µM at wild type HIV-RT (Km for dC-TP (substrate), read-out: Km WT) and 9 µM on M184V mutant RT (Km for dC-TP (substrate)).

Turning to `Nc1ccn([C@H]2CC[C@@H](CO)O2)c(=O)n1` [ddC, 2′,3′-dideoxycytidine], in the data set on HepG2 cells (1 μM), the “% Change in mitDNA” value is listed as −99.7%, the “% Change in rRNA” value is recorded as −65.4% and the “% Change in Lactic Acid” value is given as “+390%”. Moreover, in the data set on HepG2 cells (10 μM), the “% Change in mitDNA” value is on record as −99.7%, the “% Change in rRNA” value was −73.6% and the “% Change in Lactic Acid” value is recorded as “+492%”.

The term IC50 denotes the concentration that gives 50% inhibition. High values mean lower potency, low ones higher potency. As for `Nc1ccn([C@H]2CC[C@@H](COP(=O)(O)OP(=O)(O)OP(=O)(O)O)O2)c(=O)n1` [ddC-TP], the figures for the IC50 against DNA Pol γ and against DNA Pol β were 70 nM and 250 nM, respectively.

The values are drawn from patent US20050244490A1, “Dosing methods for beta-D-2',3'-dideoxy-2',3'-didehydro-5-fluorocytidine antiviral therapy” (priority 2003, published 2005).
